Experimental data published in the supplement of paper PMC10307832.

Legend:
Test in all cases: relative viability (nuclei count vs DMSO), 5 days (fraction); higher = more cells survive
Palbociclib + Dasatinib = compound: CC(=O)c1c(C)c2cnc(Nc3ccc(N4CCNCC4)cn3)nc2n(C2CCCC2)c1=O [Palbociclib] + Cc1nc(Nc2ncc(C(=O)Nc3c(C)cccc3Cl)s2)cc(N2CCN(CCO)CC2)n1 [Dasatinib] (partner 0.075 µM)
In short: (§1)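 After 5 days of treatment, lung cancer cells in 1536-well plates were fixed and stained in a single step (final 0.05% Triton X-100, 1% formaldehyde, 1 ug/ml Hoechst) and their nuclei counted on 4× images. Treatment had been applied by pin tool the day after seeding as one drug alone or as a fixed anchor-drug dose with five library-drug doses (not always all listed) in √10 steps. Relative viability is the nuclei count of treated wells divided by that of vehicle wells, and values are medians of duplicate plates.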

Palbociclib + Phenformin = compound: CC(=O)c1c(C)c2cnc(Nc3ccc(N4CCNCC4)cn3)nc2n(C2CCCC2)c1=O [Palbociclib] + N=C(N)NC(=N)NCCc1ccccc1 [Phenformin] (partner 250 µM)
In short: as §1

Palbociclib + Vorinostat = compound: CC(=O)c1c(C)c2cnc(Nc3ccc(N4CCNCC4)cn3)nc2n(C2CCCC2)c1=O [Palbociclib] + O=C(CCCCCCC(=O)Nc1ccccc1)NO [Vorinostat] (partner 1 µM)
In short: as §1

Palbociclib + Luminespib = compound: CC(=O)c1c(C)c2cnc(Nc3ccc(N4CCNCC4)cn3)nc2n(C2CCCC2)c1=O [Palbociclib] + CCNC(=O)c1noc(-c2cc(C(C)C)c(O)cc2O)c1-c1ccc(CN2CCOCC2)cc1 [Luminespib] (partner 0.01 µM)
In short: as §1

Cell Line	relative viability (Palbociclib + Dasatinib; first compound 0.01 µM)	relative viability (Palbociclib + Dasatinib; first compound 0.1 µM)	relative viability (Palbociclib + Dasatinib; first compound 0.3162 µM)	relative viability (Palbociclib + Dasatinib; first compound 1 µM)	relative viability (Palbociclib + Phenformin; first compound 0.01 µM)	relative viability (Palbociclib + Phenformin; first compound 0.1 µM)	relative viability (Palbociclib + Phenformin; first compound 0.3162 µM)	relative viability (Palbociclib + Phenformin; first compound 1 µM)	relative viability (Palbociclib + Vorinostat; first compound 0.01 µM)	relative viability (Palbociclib + Vorinostat; first compound 0.03162 µM)	relative viability (Palbociclib + Vorinostat; first compound 0.1 µM)	relative viability (Palbociclib + Vorinostat; first compound 0.3162 µM)	relative viability (Palbociclib + Vorinostat; first compound 1 µM)	relative viability (Palbociclib + Luminespib; first compound 0.01 µM)	relative viability (Palbociclib + Luminespib; first compound 0.1 µM)	relative viability (Palbociclib + Luminespib; first compound 0.3162 µM)	relative viability (Palbociclib + Luminespib; first compound 1 µM)	relative viability (Palbociclib + Dasatinib; first compound 0.03162 µM)	relative viability (Palbociclib + Phenformin; first compound 0.03162 µM)	relative viability (Palbociclib + Luminespib; first compound 0.03162 µM)
NCI-H2347	0.341	0.266	0.247	0.245	0.612	0.285	0.26	0.182	0.558	0.603	0.424	0.487	0.4	0.41	0.366	0.429	0.453			
NCI-H2405	0.207	0.226	0.212	0.208	0.387	0.327	0.36	0.317	1.01	1	0.82	0.837	0.631	0.818	0.613	0.843	0.534	0.212	0.344	0.893
NCI-H3122	0.762	0.386	0.414	0.231	0.353	0.279	0.282	0.167	0.931	0.632	0.879	0.703	0.613	0.081	0.0794	0.0926	0.0834	0.546	0.323	0.0895
PC-3 [JPC-3]	1.06	0.936	0.801	0.566	0.514	0.459	0.445	0.378	0.817	0.673	0.699	0.507	0.381	0.708	0.649	0.661	0.53	0.758	0.464	0.743
PC-14	0.324	0.207	0.164	0.115	0.817	0.549	0.528	0.282	0.804	0.629	0.576	0.673	0.416	0.141	0.151	0.127	0.176	0.223		
RERF-LC-KJ	0.832	0.717	0.852	0.922	0.419	0.418	0.459	0.485	0.724	0.613	0.66	0.747	0.682	1.4	0.937	1.3	1.48	0.802	0.414	1.17
SK-LU-1	0.183	0.147	0.133	0.161	0.546	0.309	0.314	0.254	0.805	0.748	0.617	0.529	0.436	0.218	0.222	0.223	0.207	0.157	0.418	0.177
SK-MES-1	0.346	0.165	0.129	0.188	0.661	0.455	0.376	0.18	1.08	0.902	0.735	0.763	0.395	0.755	0.587	0.42	0.376	0.358	0.573	0.462
SW 900	0.641	0.543	0.479	0.46	0.632	0.435	0.448	0.298	0.524		0.385	0.415	0.389	0.198	0.163	0.182	0.171			
SW 1573	0.495	0.354	0.394	0.277	0.364	0.234	0.216	0.219	0.752	0.251	0.51	0.673	0.546	0.385	0.257	0.208	0.265	0.321	0.324	0.207
UMC-11	0.491	0.346	0.328	0.232	0.303	0.292	0.292	0.24	0.308	0.42	0.369	0.312	0.242	1.04	0.69	0.452	0.285	0.395	0.278	0.819
